Assay results reported in paper PMC12670405, “Second-Generation AURKA-Targeting PROTACs: Structural Optimization toward in Vivo Degradation in Neuroblastoma” (Journal of Medicinal Chemistry, 2025).

Molecular target: T1, AURKA (Homo sapiens, UniProt O14965)
T1 sequence (O14965 1-403): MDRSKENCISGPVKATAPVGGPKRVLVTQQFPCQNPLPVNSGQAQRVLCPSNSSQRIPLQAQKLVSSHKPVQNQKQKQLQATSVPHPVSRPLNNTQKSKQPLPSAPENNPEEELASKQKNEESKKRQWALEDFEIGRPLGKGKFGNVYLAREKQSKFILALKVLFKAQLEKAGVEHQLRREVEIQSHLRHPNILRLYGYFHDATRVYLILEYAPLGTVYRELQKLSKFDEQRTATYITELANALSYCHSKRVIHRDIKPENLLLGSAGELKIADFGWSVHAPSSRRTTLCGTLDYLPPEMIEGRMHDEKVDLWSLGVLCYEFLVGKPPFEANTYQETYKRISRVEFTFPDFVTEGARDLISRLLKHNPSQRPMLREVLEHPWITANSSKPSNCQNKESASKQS
Test: In vivo pharmacodynamics study, IMR-32 cell line-derived xenograft, Western blot
Design: from tissue; host or cells: IMR-32 cell line-derived xenograft tumours, BALB/c nude mice; species or system BALB/c nude mice
Details: for AURKA protein reduction in tumor (in words): single IP dose 15 mg/kg; for AURKA protein levels in tumor (in words): single IV dose 15 mg/kg
Protocol: Protein lysates were denatured through addition of Laemmli buffer supplemented with β-mercaptoethanol (Sigma-Aldrich, #M6250) heated at 95 °C for 10 min. […] The ladder used was the PageRuler Prestained Protein Ladder (Thermo Fisher Scientific, #26617). Afterward, proteins were blotted on nitrocellulose membranes (Bio-Rad, #162-0233) by running at 100 V for 1 h with a buffer containing 10% 10× Tris/glycine (Bio-Rad, #161-0771) and 20% methanol (Thermo Fisher Scientific, #0390D). Ponceau staining was used for confirmation of protein transfer. Membranes were blocked in 5% milk/TBST or 5% BSA/TBST for 1 h at room temperature and subsequently incubated with primary antibodies overnight at 4 °C. Blots were washed 3× for 5 min each with TBST prior to incubation with secondary antibodies for 1 h at room temperature. Visualization of the blots was done using WestDura or WestFemto (Thermo Fisher Scientific, #34096, #34076) with the Amersham Imager 680 (BIOKÉ). Blots were stripped using the Restore Stripping Buffer (Thermo Fisher Scientific, #21059) prior to detection of additional proteins. Images were compiled and quantified using Sciugo (https://sciugo.com/). Per lane, quantified data were always normalized to that of the loading control (Vinculin or GAPDH), prior to calculating fold changes. Mean fold changes are calculated from 3 individual experiments. A list of the primary and secondary antibodies used can be found in the Supporting Information (Supplementary Table S7).
Both the in vivo pharmacokinetics and in vivo pharmacodynamics studies were performed by Eurofins Pharmacology Discovery Services. All mice were provided by BioLasco Taiwan (under Charles River Laboratories Licensee). Animals were acclimated for 3 days prior to use and were confirmed to be in good health. All aspects of this work including housing, experimentation, and animal disposal were performed in general accordance with the “Guide for the Care and Use of Laboratory Animals: Eighth Edition” (National Academies Press, Washington, DC. 2011) in a AAALAC-accredited laboratory animal facility. In addition, the animal care and use protocol was reviewed and approved by the IACUC at Eurofins Pharmacology Discovery Services; IN020-08202020 and ON002-07142023.
Six-week old female BALB/c nude mice were subcutaneously implanted with viable IMR-32 cells formulated in 50% Matrigel into the right flank (1 × 10^7 cells/mouse, in 0.2 mL volume). Palpable tumor volumes were measured with a caliper and calculated according to the prolate ellipsoid formula: tumor volume = length × width^2 × 0.5. When the mean tumor volume reached ∼250 mm^3, animals were randomized into groups (0, 4, 8, 24 h) with 3 animals per group. […] Other groups were given a single IV or IP administration of SK5527 or SK4454 at 15 mg/kg (dissolved in 5% DMSO/5% Solutol HS15/90% PBS). Tumors were subsequently harvested at the respective time points, snap-frozen in liquid nitrogen, and kept frozen at −70 °C until further processing. Upon receipt of the samples in our lab, we mechanically digested and lysed tumor pieces by adding cold RIPA lysis buffer (with protease and phosphatase inhibitors as previously described) and Stainless Steel Beads (Qiagen, #69989) followed by shaking for 2 min (twice) using TissueLyser II (Qiagen). Afterward, samples were centrifuged for 20 min (10,000 rpm, 4 °C). The supernatant was then collected and the concentration of the obtained protein lysates was measured using the Pierce BCA Protein Assay Kit (Thermo Fisher Scientific, #23227). Western blot was performed as previously described to visualize changes in AURKA protein levels.

Compound | AURKA protein reduction in tumor (in words) | AURKA protein levels in tumor (in words) (4 and 8 h post-treatment) | AURKA protein levels in tumor (in words) (24 h)
Cc1cc(Nc2ccc(F)c(CC3(C(=O)N4CCC(CN5CCN(c6ccc(N7CCC(=O)NC7=O)cn6)CC5)CC4)CCN(Cc4cccc(Cl)c4F)CC3)n2)n[nH]1 [SK4454] | not observed | strongly reduced AURKA protein levels | return to baseline levels
Cc1cc(Nc2ccc(F)c(CC3(C(=O)N4CCC(F)(CN5CCN(c6ccc(N7CCC(=O)NC7=O)cn6)CC5)CC4)CCN(Cc4cccc(Cl)c4F)CC3)n2)n[nH]1 [SK5527] | not observed | strongly reduced AURKA protein levels | return to baseline levels
